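These data come from cells grown in 96-well plates and exposed to compound for 48 hours at five concentrations. GI50 = concentration required for 50% inhibition of growth.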 Active and inactive are the calls of the source. Cut-off read from the data, not from the text of the source: active = GI50 up to about 1.1 µM and inactive = higher. Where only a bound is given, the exact number is not on record here.

Among the test systems are DLD-1; DMS-273; HOP-18; LXFL 529; XF498; RXF 631; BT-549; Hs-578T; MDA-N.
Assay in all cases: NCI-60 cell line screen, 48 h

Take `CCCN(CCC)C(=O)Cc1c2n(c3ccccc13)Cc1ccccc1-2`: the GI50 in the assay on DLD-1 is 63.4 µM (inactive); with DMS-273, 29.1 µM (inactive); in the assay on HOP-18 it was > 100 µM (inactive); in the assay on LXFL 529, 42.4 µM (inactive); in the assay with XF498 it was > 100 µM (inactive).
Consider `COc1ccc(NC(=O)/C(=C/c2ccccc2)C(C)=O)cc1`, for which the GI50 was 12.8 µM (inactive) in the assay on DLD-1; 13.7 µM (inactive) with DMS-273; 13.5 µM (inactive) in the assay with HOP-18; 12.4 µM (inactive) in the assay with LXFL 529; 15.7 µM (inactive) in the assay with RXF 631; 16.2 µM (inactive) in the assay on XF498.
Take `CCOC(=O)Cn1c(=O)[nH]c(=O)c2c1ncn2Cc1ccccc1`: the GI50 in the assay on DLD-1, in the assay with DMS-273, in the assay with HOP-18, in the assay on LXFL 529, with RXF 631 and in the assay with XF498 was > 100 µM (inactive) each time.
In the case of `COc1cc(Nc2nc3c(N)cc(C(F)(F)F)cc3nc2-c2ccccc2)cc(OC)c1OC`, the GI50 in the assay on BT-549 was 35.5 µM (inactive); in the assay on DMS-273 it was 37.9 µM (inactive); in the assay with HOP-18 it was 29.8 µM (inactive); in the assay on Hs-578T, 22.3 µM (inactive); in the assay on LXFL 529, 63.5 µM (inactive); with MDA-N, > 80.7 µM (inactive). Besides, the GI50 is > 44.5 µM (inactive) with RXF 631 and 19.1 µM (inactive) in the assay with XF498.
On to `Cc1nc2ccccc2nc1CC(=O)C(=O)Nc1ccc(Cl)cc1Cl`, for which the GI50 in the assay with DLD-1, in the assay on DMS-273, with LXFL 529 and in the assay on RXF 631 was > 100 µM (inactive) throughout.
Turning to `C/C=N\N1C(=O)c2ccccc2C1=O`, the GI50 in the assay with DLD-1, in the assay with DMS-273, with HOP-18, in the assay with LXFL 529, in the assay on RXF 631 and with XF498 was > 100 µM (inactive) throughout.
As to `O=C(O)[C@H](NS(=O)(=O)c1ccc(F)cc1)c1ccccc1`, the GI50 with DLD-1, with DMS-273, in the assay with HOP-18, with LXFL 529 and with XF498 was > 100 µM (inactive) each time.
As to `Cc1cc(N(CCC#N)CCC#N)ccc1/C(Sc1ccccc1)=C(\NC(=O)/C=C/c1ccccc1)C(=O)Sc1ccccc1`, the GI50 was 1.73 µM (inactive) with DLD-1; 6.44 µM (inactive) in the assay with DMS-273; 14 µM (inactive) with HOP-18; 1.57 µM (inactive) in the assay with LXFL 529; 2.79 µM (inactive) in the assay on RXF 631; 12 µM (inactive) in the assay with XF498.
As to `CC(=O)Nc1[nH]n(C)c(=O)c1-c1nnc(C)s1`, the GI50 in the assay with DLD-1, in the assay on DMS-273, in the assay with LXFL 529, with RXF 631 and with XF498 was > 100 µM (inactive) each time.
Consider `COc1ccc(CC2C(=O)NC(C)C(=O)N(C)C3C(=O)N(C)C(Cc4ccc(O)c(c4)Oc4ccc(cc4)C3O)C(=O)NC(C)C(=O)NC(C)C(=O)N2C)cc1` (stereo not given), for which the GI50 in the assay on BT-549 was < 0.01 µM (active); in the assay on DLD-1, 0.321 µM (active); in the assay with DMS-273, 0.0123 µM (active); in the assay on HOP-18 it was 0.00195 µM (active); in the assay on Hs-578T, 0.01 µM (active); in the assay with XF498, 0.0131 µM (active).
For `O/N=C1/C(=C/c2ccc(OCc3ccccc3)cc2)CCCC1C(NO)c1ccc(OCc2ccccc2)cc1` (stereo not given), the GI50 in the assay on DLD-1 was 10.2 µM (inactive); in the assay with DMS-273 it was 13 µM (inactive); in the assay with HOP-18, 33 µM (inactive); in the assay on LXFL 529, 12.7 µM (inactive); in the assay on RXF 631, 8.47 µM (inactive).
Turning to `Cc1cc2nc3c(=O)[nH]c(=O)nc-3n(CC(O)C(O)C(O)CO)c2cc1N` (stereo not given), the GI50 in the assay with DMS-273, in the assay on HOP-18, in the assay on LXFL 529 and in the assay on RXF 631 was > 100 µM (inactive) each time.
As to `Cc1nc(N)nc(N)c1CCCCc1ccccc1`, the GI50 with DLD-1 is 6.15 µM (inactive); with DMS-273, 4.7 µM (inactive); with HOP-18, 42.1 µM (inactive); in the assay with LXFL 529, 9.89 µM (inactive); in the assay with RXF 631, 11.9 µM (inactive).
Turning to `O=[N+]([O-])c1ccc(C2=Nn3cnnc3SC2)o1`, the GI50 was 19.6 µM (inactive) in the assay with DLD-1; 17.6 µM (inactive) in the assay on DMS-273; 13.6 µM (inactive) with LXFL 529; 12.1 µM (inactive) in the assay on RXF 631; 16.6 µM (inactive) in the assay with XF498.
The like results for `NNC(=O)N/N=C(/CC1(O)C(=O)Nc2ccc(Br)cc21)c1ccccc1` (stereo not given) were, in that order, 35.9 µM (inactive), 28.4 µM (inactive), 23.4 µM (inactive), 38.6 µM (inactive) and 18.9 µM (inactive).
The corresponding values for `CC(C)=CC(=O)CC(=O)C(=O)Nc1ccc(C)c(C)c1` are > 100 µM (inactive), > 100 µM (inactive), > 100 µM (inactive), > 100 µM (inactive) and > 100 µM (inactive).
For `Nc1c(-c2nc3ccccc3[nH]2)sc(=S)n1-c1ccccc1`, the GI50 in the assay with DLD-1 is 60.7 µM (inactive); with DMS-273, > 100 µM (inactive); in the assay on LXFL 529, 95.3 µM (inactive); in the assay with RXF 631, > 100 µM (inactive).
With `O=[N+]([O-])c1ccc(C2=Nn3c(nnc3-c3ccccc3)SC2)o1`, the GI50 with DLD-1 was 14 µM (inactive); with DMS-273, 20 µM (inactive); in the assay with HOP-18, 19.5 µM (inactive); with LXFL 529 it was 16.1 µM (inactive); with XF498, 19.7 µM (inactive).
On to `CNC(=O)OCc1nc([S+](C)[O-])n(C)c1COC(=O)NC` (stereo not given), for which the GI50 was > 100 µM (inactive) in the assay with DLD-1; > 100 µM (inactive) with DMS-273; > 88.9 µM (inactive) in the assay on HOP-18; > 23.1 µM (inactive) in the assay on LXFL 529; > 100 µM (inactive) in the assay with RXF 631; > 100 µM (inactive) with XF498.
`COC(=O)C(=NNc1ccccc1[N+](=O)[O-])C(=O)OC`: the GI50 in the assay on DMS-273 is > 100 µM (inactive); with HOP-18 it was > 100 µM (inactive); in the assay with LXFL 529, > 100 µM (inactive); with XF498, 41.2 µM (inactive).
As for `C[N+]1(C)C[C@@H](O)C[C@@H]1C(=O)[O-]` [BETONICINE], the GI50 with DLD-1, in the assay on DMS-273, in the assay on HOP-18, in the assay with LXFL 529 and in the assay with XF498 was > 100 µM (inactive) in each case.
Take `CC1OC(OC2C(CO)OC(O[C@H]3CC[C@@]4(C)C(=CC[C@H]5[C@@H]6C[C@@H]7O[C@]8(CC[C@@H](C)CN8)[C@@H](C)[C@@H]7[C@@]6(C)CC[C@@H]54)C3)C(O)C2O)C(O)C(O)C1O` (stereo not given in full): the GI50 with DLD-1 is 55 µM (inactive); in the assay with DMS-273 it was > 100 µM (inactive); in the assay with HOP-18, 43.3 µM (inactive); in the assay with LXFL 529 it was > 100 µM (inactive); with XF498, > 100 µM (inactive).
Regarding `Oc1cc(-n2cccn2)c(O)cc1-n1cccn1`, the GI50 with BT-549 is 18.7 µM (inactive); with DLD-1 it was 32.6 µM (inactive); in the assay on DMS-273, 41.3 µM (inactive); in the assay on HOP-18 it was 67.9 µM (inactive); with Hs-578T, > 100 µM (inactive); with LXFL 529, 19.4 µM (inactive). The GI50 is 17.6 µM (inactive) with MDA-N, > 60.8 µM (inactive) with RXF 631 and 16.3 µM (inactive) in the assay with XF498.
As to `COc1ccc(-c2c3ccccc3c(-c3ccc(OC)cc3)c3ccccc23)cc1`, the GI50 in the assay with DLD-1, in the assay on DMS-273, with HOP-18, in the assay on LXFL 529 and with XF498 was > 100 µM (inactive) each time.
For the molecule `CCc1ccccc1NC(=O)c1cccc([N+](=O)[O-])c1O`, the GI50 with DLD-1 is 26.7 µM (inactive); in the assay on DMS-273, 22.1 µM (inactive); with HOP-18 it was 66.5 µM (inactive); in the assay with LXFL 529, 36.4 µM (inactive); in the assay with RXF 631 it was 23.7 µM (inactive); in the assay with XF498, 20.4 µM (inactive).

The values are drawn from ChEMBL document CHEMBL1201862, “PubChem BioAssay data set” (2004).
